Results from PubChem BioAssay AID330 (DTP/NCI, 2004).
Several values for one entry are separate records, joined by “and”; a condition that tells them apart may be missing. Equal values may be shown once. Inconclusive results and toxic doses are left out. How the source made its calls: active means survival T/C of 150% or more; inactive means T/C below 125% in these data.

Tested on: P388 leukemia ip, CD2F1 mice, survival T/C
Assay: NCI In Vivo Anticancer Drug Screen. Data for tumor model P388 Leukemia (intraperitoneal) in CD2F1 (CDF1) mice
Details: endpoint: median survival time, higher = longer survival
Summary of the method: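 Mice carrying the transplanted tumor received test compound or vehicle. Survival was recorded in each group, and the value is the treated-group measurement divided by that of the vehicle-treated control group.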

[1] = dose: 50.0 mg/kg/injection, schedule: Q01DX005 (ip), vehicle: saline with Tween-80
[2] = dose: 100.0 mg/kg/injection, schedule: Q01DX005 (ip), vehicle: saline with Tween-80
[3] = dose: 200.0 mg/kg/injection, schedule: Q01DX005 (ip), vehicle: saline with Tween-80
[4] = dose: 12.5 mg/kg/injection, schedule: Q01DX009 (ip), vehicle: other
[5] = dose: 25.0 mg/kg/injection, schedule: Q01DX009 (ip), vehicle: other
[6] = dose: 25.0 mg/kg/injection, schedule: Q01DX009 (ip), vehicle: saline with Tween-80
[7] = dose: 50.0 mg/kg/injection, schedule: Q01DX009 (ip), vehicle: saline with Tween-80
[8] = dose: 100.0 mg/kg/injection, schedule: Q01DX009 (ip), vehicle: saline with Tween-80
[9] = dose: 200.0 mg/kg/injection, schedule: Q01DX009 (ip), vehicle: saline with Tween-80
[10] = dose: 15.0 mg/kg/injection, schedule: Q01DX005 (ip), vehicle: saline with Tween-80
[11] = dose: 30.0 mg/kg/injection, schedule: Q01DX005 (ip), vehicle: saline with Tween-80
[12] = dose: 60.0 mg/kg/injection, schedule: Q01DX005 (ip), vehicle: saline with Tween-80
[13] = dose: 120.0 mg/kg/injection, schedule: Q01DX005 (ip), vehicle: saline with Tween-80
[14] = dose: 240.0 mg/kg/injection, schedule: Q01DX005 (ip), vehicle: saline with Tween-80

Measured: T/C

COC(=O)C1(C)CCCC2(C)C3=C(CCC12)C(=O)c1occc1CC3 (configuration not stated)
inactive: dose: 0.37 mg/kg/injection, schedule: Q01DX009 (ip), vehicle: Klucel (hydroxypropylcellulose) (HPC) 100 % of control | dose: 0.75 mg/kg/injection, schedule: Q01DX009 (ip), vehicle: Klucel (hydroxypropylcellulose) (HPC) 103 % of control | dose: 1.5 mg/kg/injection, schedule: Q01DX009 (ip), vehicle: Klucel (hydroxypropylcellulose) (HPC) 100 % of control | dose: 3.0 mg/kg/injection, schedule: Q01DX009 (ip), vehicle: Klucel (hydroxypropylcellulose) (HPC) 99 % of control | dose: 6.0 mg/kg/injection, schedule: Q01DX009 (ip), vehicle: Klucel (hydroxypropylcellulose) (HPC) 108 % of control

CCCCCCCCCCCC(=O)c1c(O)cc(C)oc1=O
inactive: dose: 60.0 mg/kg/injection, schedule: Q01DX005 (ip), vehicle: Klucel (hydroxypropylcellulose) (HPC) 100 % of control | dose: 120.0 mg/kg/injection, schedule: Q01DX005 (ip), vehicle: Klucel (hydroxypropylcellulose) (HPC) 98 % of control | dose: 240.0 mg/kg/injection, schedule: Q01DX005 (ip), vehicle: Klucel (hydroxypropylcellulose) (HPC) 105 % of control

COc1cc2c3cc1Oc1c(OC)c(OC)cc4c1C(Cc1ccc(O)c(c1)-c1cc(ccc1OC)CC3N(C)CC2)N(C)CC4 (configuration not stated)
inactive: dose: 0.78 mg/kg/injection, schedule: Q01DX009 (ip), vehicle: Klucel (hydroxypropylcellulose) (HPC) 106 % of control | dose: 1.56 mg/kg/injection, schedule: Q01DX009 (ip), vehicle: Klucel (hydroxypropylcellulose) (HPC) 87 % of control | dose: 3.13 mg/kg/injection, schedule: Q01DX009 (ip), vehicle: Klucel (hydroxypropylcellulose) (HPC) 104 % of control | dose: 6.25 mg/kg/injection, schedule: Q01DX009 (ip), vehicle: Klucel (hydroxypropylcellulose) (HPC) 104 % of control

COc1ccc(C2=NC(C)(C)CO2)cc1C
inactive: [1] 103 % of control | [2] 103 % of control | [3] 94 % of control

CC[N+](C)(CC)CCNc1cc2c(c3c(=O)c4ccccc4sc13)CCCC2
inactive: dose: 25.0 mg/kg/injection, schedule: Q01DX005 (ip), vehicle: distilled water + Tween-80 119 % of control | dose: 50.0 mg/kg/injection, schedule: Q01DX005 (ip), vehicle: distilled water + Tween-80 106 % of control | dose: 100.0 mg/kg/injection, schedule: Q01DX005 (ip), vehicle: distilled water + Tween-80 101 % of control

COc1cccc(C=O)c1OC(=O)Oc1ccccc1
inactive: dose: 3.13 mg/kg/injection, schedule: Q01DX009 (ip), vehicle: distilled water + Tween-80 111 % of control and 95 % of control | dose: 6.25 mg/kg/injection, schedule: Q01DX009 (ip), vehicle: distilled water + Tween-80 111 % of control | dose: 12.5 mg/kg/injection, schedule: Q01DX009 (ip), vehicle: distilled water + Tween-80 100 % of control and 104 % of control | dose: 25.0 mg/kg/injection, schedule: Q01DX009 (ip), vehicle: distilled water + Tween-80 109 % of control and 113 % of control and 114 % of control | dose: 50.0 mg/kg/injection, schedule: Q01DX009 (ip), vehicle: distilled water + Tween-80 100 % of control and 103 % of control

Nc1ccc(Cl)cc1N
inactive: [4] 105 % of control | dose: 12.5 mg/kg/injection, schedule: Q01DX009 (ip), vehicle: saline with Tween-80 102 % of control | [5] 100 % of control | [6] 102 % of control and 104 % of control | dose: 50.0 mg/kg/injection, schedule: Q01DX009 (ip), vehicle: other 113 % of control | [7] 101 % of control and 107 % of control | dose: 100.0 mg/kg/injection, schedule: Q01DX009 (ip), vehicle: other 105 % of control | [8] 100 % of control and 105 % of control | dose: 200.0 mg/kg/injection, schedule: Q01DX009 (ip), vehicle: other 105 % of control | [9] 114 % of control and 121 % of control

CSCC(N)CO (configuration not stated)
inactive: dose: 50.0 mg/kg/injection, schedule: Q01DX009 (ip), vehicle: saline 110 % of control | dose: 100.0 mg/kg/injection, schedule: Q01DX009 (ip), vehicle: saline 105 % of control | dose: 200.0 mg/kg/injection, schedule: Q01DX009 (ip), vehicle: saline 101 % of control

C/C(=N\N)c1cnc(N)nc1C
inactive: dose: 60.0 mg/kg/injection, schedule: Q01DX005 (ip), vehicle: saline 101 % of control | dose: 120.0 mg/kg/injection, schedule: Q01DX005 (ip), vehicle: saline 107 % of control | dose: 240.0 mg/kg/injection, schedule: Q01DX005 (ip), vehicle: saline 100 % of control

C=CCCN(c1ccc(C(=O)OCC)cc1)S(=O)(=O)c1ccc(C)cc1
inactive: [6] 100 % of control | [7] 110 % of control | [8] 100 % of control | [9] 108 % of control

Cc1cc(NC(=S)SC(C)C)ccc1Br
inactive: dose: 50.0 mg/kg/injection, schedule: Q01DX009 (ip), vehicle: suspension in saline 100 % of control | dose: 100.0 mg/kg/injection, schedule: Q01DX009 (ip), vehicle: suspension in saline 101 % of control | dose: 200.0 mg/kg/injection, schedule: Q01DX009 (ip), vehicle: suspension in saline 100 % of control

CC(=O)OCC1OC([S][Sb]([CH3])[CH3])C(OC(C)=O)C(OC(C)=O)C1OC(C)=O (configuration not stated)
inactive: [10] 112 % of control | [11] 101 % of control | [12] 115 % of control

O=c1ccc2cc3ccoc3c(OCCOCCOCCOCCOc3c4occc4cc4ccc(=O)oc34)c2o1
inactive: [1] 92 % of control | [2] 91 % of control | [3] 91 % of control

O=C1C(c2ccccc2)=C(c2ccccc2)C(=O)N1CCN1CCCC1
inactive: [12] 105 % of control | [13] 110 % of control | [14] 108 % of control

O=[n+]1c2c(n([O-])c3ccccc31)-c1cccc3cccc-2c13
inactive: dose: 12.5 mg/kg/injection, schedule: Q01DX010 (ip), vehicle: saline 100 % of control | dose: 25.0 mg/kg/injection, schedule: Q01DX010 (ip), vehicle: saline 100 % of control | dose: 50.0 mg/kg/injection, schedule: Q01DX010 (ip), vehicle: saline 100 % of control | dose: 100.0 mg/kg/injection, schedule: Q01DX010 (ip), vehicle: saline 100 % of control

O=C1N=C2SCCN2C(=O)C1Nc1ccc(Cl)cc1 (configuration not stated)
inactive: dose: 100.0 mg/kg/injection, schedule: Q04DX002 (ip), vehicle: saline with Tween-80 99 % of control | dose: 200.0 mg/kg/injection, schedule: Q04DX002 (ip), vehicle: saline with Tween-80 100 % of control | dose: 400.0 mg/kg/injection, schedule: Q04DX002 (ip), vehicle: saline with Tween-80 98 % of control

CN1c2ccccc2S(=O)(=O)n2c(CCc3ccccc3)nnc21
inactive: [10] 103 % of control | [11] 100 % of control | [12] 87 % of control and 97 % of control | [14] 90 % of control

CCC(=O)OC1CC2(C)C(=CC1=O)CCC1C2CCC2(C)C(OC(=O)CC)CCC12 (configuration not stated)
inactive: [7] 100 % of control | [8] 95 % of control | dose: 100.0 mg/kg/injection, schedule: Q04DX003 (ip), vehicle: saline with Tween-80 100 % of control | [9] 100 % of control | dose: 200.0 mg/kg/injection, schedule: Q04DX003 (ip), vehicle: saline with Tween-80 100 % of control

COc1ccc(C(=O)CSC(=S)N2CCCCC2)cc1
inactive: dose: 50.0 mg/kg/injection, schedule: Q01DX009 (ip), vehicle: Klucel (hydroxypropylcellulose) (HPC) 86 % of control | dose: 100.0 mg/kg/injection, schedule: Q01DX009 (ip), vehicle: Klucel (hydroxypropylcellulose) (HPC) 86 % of control

c1ccc(C23CC4CCCCC4CC2O3)cc1 (configuration not stated)
inactive: dose: 100.0 mg/kg/injection, schedule: Q04DX002 (ip), vehicle: Klucel (hydroxypropylcellulose) (HPC) 98 % of control | dose: 200.0 mg/kg/injection, schedule: Q04DX002 (ip), vehicle: Klucel (hydroxypropylcellulose) (HPC) 111 % of control | dose: 400.0 mg/kg/injection, schedule: Q04DX002 (ip), vehicle: Klucel (hydroxypropylcellulose) (HPC) 104 % of control

CN(C)CCCN1C[C@H]2CC[C@@](C)(C1)C2(C)C
inactive: [1] 105 % of control | [2] 107 % of control | [3] 105 % of control

COc1cccc2c1C(=O)c1c(O)c3c(c(O)c1C2=O)CC(NO)CC3OC1CC(NC(=O)C(F)(F)F)C(O)C(C)O1 (configuration not stated)
inactive: dose: 1.56 mg/kg/injection, schedule: Q01DX009 (ip), vehicle: other 103 % of control and 101 % of control | dose: 3.13 mg/kg/injection, schedule: Q01DX009 (ip), vehicle: other 104 % of control and 106 % of control | dose: 6.25 mg/kg/injection, schedule: Q01DX009 (ip), vehicle: other 108 % of control and 110 % of control | [4] 113 % of control | [5] 116 % of control and 107 % of control

CSc1c(C)n2c3c(cccc13)CCC2
inactive: [12] 108 % of control | [13] 96 % of control | [14] 100 % of control
